Results reported in ChEMBL document CHEMBL4651402, “Screening of ~5500 FDA-approved drugs and clinical candidates for anti-SARS-CoV-2 activity” (2021).

Tested on: SARS-CoV-2
Experiment: microbe, parasite or virus in culture
Settings: Severe acute respiratory syndrome coronavirus 2, Vero C1008, 48 h

SMILES | IC50 [µM] | IC50 (read-out: pIC50 (converted)) [µM]
CC(O)c1cc(C(=O)N[C@@H](C)Cn2ccc(-c3ccc(C#N)c(Cl)c3)n2)n[nH]1 (some centres not stated) [DAROLUTAMIDE] | > 20 | > 20
COC(=O)Nc1nc2cc(Sc3ccccc3)ccc2[nH]1 [FENBENDAZOLE] | > 20 | > 20
CCCCNC(=O)NS(=O)(=O)c1ccc(C)cc1 [TOLBUTAMIDE] | > 20 | > 20
Cc1ccc(F)c(NC(=O)Nc2ccc(-c3cccc4[nH]nc(N)c34)cc2)c1 [LINIFANIB] | > 20 | > 20
CC[C@H]1CN2CCc3cc(OC)c(OC)cc3[C@@H]2C[C@@H]1C[C@H]1NCCc2cc(OC)c(OC)cc21 [EMETINE] | > 20 | > 20
COc1cc(/C=C/C(=O)O)ccc1O [FERULATE] | > 20 | > 20
O=C(O)c1ccccc1S [THIOSALICYLIC ACID] | > 20 | > 20
C[C@]12CC[C@@H]3c4ccc(OS(=O)(=O)O)cc4CC[C@H]3[C@@H]1CCC2=O [ESTRONE SULFURIC ACID] | > 20 | > 20
CC1(C)[C@@H](OC(=O)CCC(=O)O)CC[C@]2(C)[C@H]3C(=O)C=C4[C@@H]5C[C@@](C)(C(=O)O)CC[C@]5(C)CC[C@@]4(C)[C@]3(C)CC[C@@H]12 [CARBENOXOLONE] | > 20 | > 20
COc1cc(C(=O)OC(COCCC(C)C)CN2CCOCC2)cc(OC)c1OC (configuration not stated) [AMOPROXAN] | > 20 | > 20
O=c1sn(-c2cccc3ccccc23)c(=O)n1Cc1ccccc1 [TIDEGLUSIB] | > 20 | > 20
O=c1ccc2ccccc2o1 [COUMARIN] | > 20 | > 20
O=C(NCC1CCOCC1)c1cnc(Nc2ccc(Cl)cc2Cl)nc1C(F)(F)F [GW842166X] | > 20 | > 20
c1ccc2c(c1)Sc1ccccc1N2CCN1CCCC1 [PYRATHIAZINE] | > 20 | > 20
FC(F)(F)c1cccc(C2=CCN(CCc3ccc4ccccc4c3)CC2)c1 [XALIPRODEN] | > 20 | > 20
CCCCCCCCCCCCCCCC[N+](C)(C)CCN(Cc1ccc(OC)cc1)c1ncccn1 [THONZONIUM] | > 20 | > 20
O=C(O)Cc1cn(-c2ccccc2)nc1-c1ccc(Cl)cc1 [LONAZOLAC] | > 20 | > 20
CCCC1(CCC)CCC2(CCN(CCCN(CC)CC)C2)CC1 [ATIPRIMOD] | > 20 | > 20
COc1cc(N)c(Cl)cc1C(=O)NC1CCN2CCCC1C2 (configuration not stated) [RENZAPRIDE] | > 20 | > 20
CCc1nc(N)nc(N)c1-c1ccc(Cl)c(Cl)c1 [ETOPRINE] | > 20 | > 20
Cn1c([N+](=O)[O-])cnc1/C=N/N1CC(CN2CCOCC2)OC1=O (configuration not stated) [MOXNIDAZOLE] | > 20 | > 20
O=C1[C@H](CC[C@H](O)c2ccc(F)cc2)[C@@H](c2ccc(O)cc2)N1c1ccc(F)cc1 [EZETIMIBE] | > 20 | > 20
CCOC(=O)[C@H](CCc1ccccc1)N[C@@H](C)C(=O)N1CCC[C@H]1C(=O)O | > 20 | > 20
CN(C)C(=O)Oc1ccc[n+](C)c1 [PYRIDOSTIGMINE] | > 20 | > 20
CN1CCN(C2=Cc3cc(Cl)ccc3/C(=C/C#N)c3ccccc32)CC1 [RILAPINE] | > 20 | > 20
Fc1ccc2[nH]c3c(c2c1)CN(CCCc1cccnc1)CC3 [GEVOTROLINE] | > 20 | > 20

SMILES | IC50 [µM] | IC50 (read-out: pIC50 (converted)) [µM]
CCOc1ccc(NC(=O)CC(C)O)cc1 (configuration not stated) [BUCETIN] | > 20 | > 20
O=C(/C=C/c1c(C(=O)O)[nH]c2cc(Cl)cc(Cl)c12)Nc1ccccc1 | > 20 | > 20
CCC12CCCN3CCc4c(n(c5ccccc45)C(O)(C(=O)OC)C1)C32 (configuration not stated) | > 20 | > 20
O=C(O)c1cc2cc(Cc3cccnc3)ccc2o1 [FUREGRELATE] | > 20 | > 20
O=C(Oc1ccc2c(c1)CCCN2C(=O)C(Cl)Cl)c1ccco1 [QUINFAMIDE] | > 20 | > 20
OCc1cc2c(cn1)[nH]c1ccccc12 | > 20 | > 20
Cc1cccc(C)c1NC1=NCCCS1 [XYLAZINE] | > 20 | > 20
CCC(=O)OC1(c2ccccc2)CCN(C)CC1C (configuration not stated) [ALPHAPRODINE] | > 20 | > 20
CN1C(CSCC(F)(F)F)Nc2cc(Cl)c(S(N)(=O)=O)cc2S1(=O)=O (configuration not stated) [POLYTHIAZIDE] | > 20 | > 20
Cc1cc(CCCCCOc2c(Cl)cc(C3=NCCO3)cc2Cl)on1 [WIN-54954] | > 20 | > 20
O=C(CN1CCNCC1)NC1CCCCC1 [ESAPRAZOLE] | > 20 | > 20
C/N=C(\NS(=O)(=O)c1ccc(Cl)cc1)N1C[C@@H](c2ccccc2)C(c2ccc(Cl)cc2)=N1 (racemic) | > 20 | > 20
CC(C)[C@H](N)C(=O)OCCOCn1cnc2c(=O)nc(N)[nH]c21 [VALACYCLOVIR] | > 20 | > 20
C[C@@H]1CC[C@@]2(NC1)O[C@H]1C[C@H]3[C@@H]4CC=C5C[C@@H](O)CC[C@]5(C)[C@H]4CC[C@]3(C)[C@H]1[C@@H]2C | > 20 | > 20
Cc1cc(C(=O)NNCc2ccccc2)no1 [ISOCARBOXAZID] | > 20 | > 20
CC(C)(O)[C@@H]1CC[C@](C)(C2[C@@H](O)C[C@@]3(C)[C@H]4C[C@H](O[C@H]5OC(CO)[C@H](O)C(O)C5O)[C@H]5C(C)(C)C(O[C@@H]6OC[C@@H](O)C(O)C6O)CC[C@@]56C[C@@]46CC[C@]23C)O1 (some centres not stated) | > 20 | > 20
CC(=O)Oc1cc(OC(C)=O)c2c(c1)O[C@H](c1ccc(OC(C)=O)c(OC(C)=O)c1)[C@@H](OC(C)=O)C2 [CATECHIN PENTAACETATE] | > 20 | > 20
COc1ccnc2[nH]cc(C(=O)C(=O)N3CCN(C(=O)c4ccccc4)C[C@H]3C)c12 | > 20 | > 20
Cc1ccccc1C(OCCN(C)C)c1ccccc1 (configuration not stated) [ORPHENADRINE] | > 20 | > 20
O=C(O)Cc1ccccc1Nc1c(Cl)cccc1Cl [DICLOFENAC] | > 20 | > 20
CN(C)CCCOC1CC(C)(C)N(C)C(C)(C)C1 [PEMERID] | > 20 | > 20
C=C(C)Cn1c(N)cc(=O)n(C)c1=O [AMISOMETRADINE] | > 20 | > 20
CC(C)OC(=O)C1(c2ccccc2)CCN(C)CC1 [PROPERIDINE] | > 20 | > 20
CC(C)CC(N(C)C)C1(c2ccc(Cl)cc2)CCC1 (configuration not stated) [SIBUTRAMINE] | > 20 | > 20
CCN(CC)C(=O)C1CN2CCc3cc(OC)c(OC)cc3C2CC1OC(C)=O (configuration not stated) [BENZQUINAMIDE] | > 20 | > 20
C=CCNc1nc(NCC=C)nc(N2CCN(C(c3ccc(F)cc3)c3ccc(F)cc3)CC2)n1 [ALMITRINE] | > 20 | > 20

SMILES | IC50 [µM] | IC50 (read-out: pIC50 (converted)) [µM]
CCc1cc(Cl)c(OC)c(C(=O)NC[C@@H]2CCCN2CC)c1O [ETICLOPRIDE] | > 20 | > 20
Cc1cc(-n2c(=O)[nH]c(=O)n(C)c2=O)ccc1Oc1ccc(SC(F)(F)F)cc1 [TOLTRAZURIL] | > 20 | > 20
COc1ccc2cc([C@H](C)CO)ccc2c1 [NAPROXOL] | > 20 | > 20
C=CCC1(CC=C)C(=O)NC(=O)NC1=O [ALLOBARBITAL] | > 20 | > 20
NC(C=O)C(O)C(O)C(O)CO (configuration not stated) | > 20 | > 20
N=C(N)NC(=N)N1CCOCC1 [MOROXYDINE] | > 20 | > 20
Cc1ccc(S(=O)(=O)NC(=O)NC2C3CCC(C)(C2O)C3(C)C)cc1 (configuration not stated) | > 20 | > 20
CCOc1ccn(-c2ccc(F)cc2)c(=O)c1C(=O)Nc1ccc(Oc2ccnc(N)c2Cl)c(F)c1 [BMS-777607] | > 20 | > 20
CCN(CC)CCOC(=O)C1(c2ccccc2)CCCC1 | > 20 | > 20
COc1ccc(-c2ccc3cc(C(=O)O)ccc3c2)cc1C12CC3CC(CC(C3)C1)C2 | > 20 | > 20
CCOC(=O)c1c(C)cc(O)cc1O [ORSELLINIC ACID, ETHYL ESTER] | > 20 | > 20
CC(C)(C)CC(C)(C)c1cc(Cc2cc(C(C)(C)CC(C)(C)C)cc(-n3nc4ccccc4n3)c2O)c(O)c(-n2nc3ccccc3n2)c1 [BISOCTRIZOLE] | > 20 | > 20
O=C1Nc2ccc(Cl)cc2[C@](C#CC2CC2)(C(F)(F)F)O1 | > 20 | > 20
Cc1ccc(C[N+](C)(C)C)o1 | > 20 | > 20
CO[C@H]1C=C2CCN(C)[C@H]2[C@@H]2c3cc4c(cc3C(=O)O[C@H]21)OCO4 (single isomer, unassigned) | > 20 | > 20
CCCCc1cc2ccccc2c(OCCN(C)C)n1 [DIMETHISOQUIN] | > 20 | > 20
CN1CCC23CCCCC2C1Cc1ccc(O)cc13 (stereo not drawn) [RACEMORPHAN] | > 20 | > 20
CC(=O)O[C@]1(C(C)=O)CCC2C3C[C@H](C)C4=CC(=O)CCC4(C)C3CCC21C (some centres not stated) | > 20 | > 20
CN(C)CCC(c1ccc(Br)cc1)c1ccccn1 (configuration not stated) [BROMPHENIRAMINE] | > 20 | > 20
CCCC(=O)Nc1ncnc2c1ncn2[C@@H]1O[C@@H]2OP(=O)(O)OC[C@H]2[C@H]1OC(=O)CCC | > 20 | > 20
CN(C)CCC(c1ccccc1)c1ccccn1 (configuration not stated) [PHENIRAMINE] | > 20 | > 20
C[C@H]1NC(=O)CO[C@@H]1c1ccccc1 (relative stereo) | > 20 | > 20
Cn1c(-c2ccc3c(c2)OCO3)cc(=O)c2ccccc21 [GRAVEOLINE] | > 20 | > 20
CN1CC(O)C2=CC(=NNC(N)=O)C(=O)C=C21 (configuration not stated) | > 20 | > 20
